Data reported in patent US20230099031A1, “BIFUNCTIONAL AGENTS FOR PROTEIN RECRUITMENT AND/OR DEGRADATION” (Orionis Biosciences, Inc., priority 2019, published 2023).
Like-named read-outs stand apart in the source and are kept apart here.

Key:
DHFR = target: T1, DHFR (UniProt P0ABQ4+Q96SW2); assay: Recruitment Assay (MAPPIT-like): DHFR recruitment to CRBN, pCLG-DHFR+pMG1-CRBN; type: cell-based, E. coli; settings: for EC50: HEK293T cells, luciferase 24 hours after compound treatment, read-out: Recruitment EC50 (M), target protein DHFR
T1 construct: Full size proteins are fused for each of the target proteins tested; expressed in transfected cells; host or cells: HEK293T
Description: (§1) In this experimental set-up, cells are transfected with a construct encoding a CRBN-fusion protein and another one encoding a substrate-fusion protein. Test compound activity is assessed with increasing concentrations of test compounds (dose-response studies) to monitor the ability to promote CRBN-ligand-induced protein interaction.
(§2) Full size proteins are fused for each of the target proteins tested, except in the case of IKZF1 where isoform 7 is used, and BRD4, where isoform 3 is applied. For the study, the following construct combinations are used: IKZF1 recruitment: pSEL-CRBN+pMG1-IKZF1(isoform 7); ASS1 recruitment: pSEL-CRBN+pMG1-ASS1; SALL4 recruitment: pSEL-SALL4+pMG1-CRBN; DHFR recruitment: pCLG-DHFR+pMG1-CRBN; ESR1 recruitment: pSEL-CRBN+pMG1-ESR1; BRD4 recruitment: pSEL-CRBN+pMG1-BRD4(isoform 3). Cells are treated with erythropoietin (Epo; where pSEL-type receptor fusions constructs are used) or leptin (in the case pCLG-type receptor fusion constructs are applied) without or with the indicated dose of test compound at 24 hours after transfection. Luciferase activity is measured 24 hours after test compound treatment using the Luciferase Assay System kit (PROMEGA, Madison, Wis.) with an Ensight plate reader (PERKIN ELMER LIFE SCIENCES, Waltham, Mass.). Data points depict fold induction of the average luciferase activity of triplicate samples from Epo or leptin+test compound treated cells versus Epo or leptin only treated cells. Error bars represent standard deviations. Curves are fit using 4-parameter nonlinear regression in […] PRISM software.
Error bars represent standard deviations and curves were fit using 4-parameter nonlinear regression in […] PRISM software.

CRBN = target: T2, CRBN (Homo sapiens, UniProt Q96SW2); assay: Competition Assay: MAPPIT-like, competition with trimethoprim-lenalidomide hybrid ligand for binding to CRBN in HEK293T cells; type: cell-based
T2 construct: expressed in transfected cells; host or cells: HEK293T

ESR1 = target: T3, ESR1 (Homo sapiens, UniProt P03372+Q96SW2); assay: Recruitment Assay (MAPPIT-like): ESR1 recruitment, pSEL-CRBN+pMG1-ESR1; type: cell-based; settings: HEK293T cells, luciferase 24 hours after compound treatment; read-out: Recruitment EC50 (M), target protein ESR1
T3 construct: Full size proteins are fused for each of the target proteins tested; expressed in transfected cells; host or cells: HEK293T
Description: as §1, with “In this Example 2, a similar MAPPIT-like assay is applied as described in Example 1 to determine test compound-induced binding of a particular substrate protein of interest to CRBN. In” for “In”
Specifically, HEK293T cells are transfected with a plasmid encoding the MAPPIT receptor fusion wherein the protein of interest (CRBN or substrate protein) is genetically linked to a cytoplasmic domain of the leptin receptor, which itself is fused to the extracellular domain of the erythropoietin (Epo) receptor (pSEL-X, where X represents either CRBN or any of the tested substrate proteins of interest) or to the extracellular domain of the leptin receptor (pCLG-X, where X represents either CRBN or any of the tested substrate proteins of interest), a plasmid encoding the MAPPIT gp130 fusion (pMG1-Y, Y being either any of the tested substrate proteins or CRBN) and a STAT3-responsive luciferase-encoding reporter plasmid (pXP2d2-rPAPI-luciferase reporter plasmid), as described (Lievens, et al. “Array MAPPIT: high-throughput interactome analysis in mammalian cells.” Journal of Proteome Research 8.2 (2009): 877-886). Full size proteins are fused for each of the target proteins tested, except in the case of IKZF1 where isoform 7 is used, and BRD4, where isoform 3 is applied. […] Luciferase activity is measured 24 hours after test compound treatment using the Luciferase Assay System kit (PROMEGA, Madison, Wis.) with an Ensight plate reader (PERKIN ELMER LIFE SCIENCES, Waltham, Mass.). […]

ASS1 = target: T4, ASS1 (Homo sapiens, UniProt P00966+Q96SW2); assay: Recruitment Assay (MAPPIT-like): ASS1 recruitment, pSEL-CRBN+pMG1-ASS1; type: cell-based; settings: recruitment of ASS1, protocol of Example 2; for EC50: read-out: EC50_ASS1
T4 construct: Full size proteins are fused for each of the target proteins tested; expressed in transfected cells; host or cells: HEK293T
Description: as §1, §2

SALL4 = target: T5, SALL4 (Homo sapiens, UniProt Q96SW2+Q9UJQ4); assay: Recruitment Assay (MAPPIT-like): SALL4 recruitment, pSEL-SALL4+pMG1-CRBN; type: cell-based; settings: recruitment of SALL4, protocol of Example 2; read-out: EC50_SALL4
T5 construct: Full size proteins are fused for each of the target proteins tested; expressed in transfected cells; host or cells: HEK293T
Description: as §1, §2

IKZF1 = target: T6, IKZF1 (Homo sapiens, UniProt Q13422+Q96SW2); assay: Recruitment Assay (MAPPIT-like): IKZF1 recruitment, pSEL-CRBN+pMG1-IKZF1(isoform 7); type: cell-based; settings: recruitment of IKZF1, protocol of Example 2; read-out: EC50_IKZF1
T6 construct: expressed in transfected cells; host or cells: HEK293T
Description: as §1, §2

IKZF1, ASS1 and SALL4 = assay: Recruitment assessment: recruitment of any tested substrate from among IKZF1, ASS1 and SALL4 (MAPPIT-like recruitment assays); type: cell-based; settings: any tested substrate among IKZF1, ASS1, SALL4 at any tested concentration
[1] = HEK293T cells, 300 nM trimethoprim-lenalidomide hybrid ligand, luciferase 24 hours after compound treatment, read-out: Competition IC50
[2] = protocol and reagents of Example 1, read-out: IC50 Competition

Compound | EC50 (SALL4) | EC50 (IKZF1) | IC50 (CRBN; [2]) | EC50 (DHFR) | also measured
COc1cc(Cc2cnc(N)cc2N)cc(OC)c1OCCCCC(=O)NCCOCCOCCOCCNC(=O)COc1ccc2nc(C(=O)Cc3ccc4c(c3)C(=O)N(C3CCC(=O)NC3=O)C4)ccc2c1 (stereo not shown) [Compound 5.10] | – | – | – | 7.95e-08 M | –
COc1cc(Cc2cnc(N)nc2N)cc(OC)c1OCCCCC(=O)NCCOCCOCCOCCNC(=O)c1cccc(CNC(=O)CNc2ccc3c(c2)C(=O)N(C2CCC(=O)NC2=O)C3)c1 (stereo not shown) [Compound 5.12] | – | – | – | 3.55e-08 M | –
COc1cc(Cc2cnc(N)nc2N)cc(OC)c1OCCCCC(=O)NCCOCCOCCOCCNC(=O)COc1ccc(Br)c2c1C(=O)N(C1CCC(=O)NC1=O)C2 (stereo not shown) [Compound 5.13] | – | – | – | 4.69e-07 M | –
COc1cc(Cc2cnc(N)nc2N)cc(OC)c1OCCCCC(=O)NCCOCCOCCOCCNC(=O)c1ccc2ncnc(Nc3ccc4c(c3)C(=O)N(C3CCC(=O)NC3=O)C4)c2c1 (stereo not shown) [Compound 5.19] | – | – | – | 4.2e-09 M | –
COc1cc(Cc2cnc(N)nc2N)cc(OC)c1OCCCCC(=O)NCCOCCOCCOCCNC(=O)c1ccc2c(Nc3ccc4c(c3)C(=O)N(C3CCC(=O)NC3=O)C4)ncnc2c1 (stereo not shown) [Compound 5.20] | – | – | – | 1.01e-08 M | –
COc1cc(Cc2cnc(N)nc2N)cc(OC)c1OCCCCC(=O)NCCOCCOCCOCCNC(=O)Cn1cc(CN(C)C(=O)CNc2ccc3c(c2)C(=O)N(C2CCC(=O)NC2=O)C3)cn1 (stereo not shown) [Compound 5.23] | – | – | – | 1.19e-07 M | –
COc1cc(Cc2cnc(N)nc2N)cc(OC)c1OCCCCC(=O)NCCOCCOCCOCCNC(=O)CN1CCN(C(=O)CNc2ccc3c(c2)C(=O)N(C2CCC(=O)NC2=O)C3)C(C)C1 (stereo not shown) [Compound 5.26] | – | – | – | 4.5e-07 M | –
COc1cc(Cc2cnc(N)nc2N)cc(OC)c1OCCCCC(=O)NCCOCCOCCOCCNC(=O)c1ccc2c(c1)CN(C(=O)CNc1ccc3c(c1)C(=O)N(C1CCC(=O)NC1=O)C3)C2 (stereo not shown) [Compound 5.46] | – | – | – | 1.44e-08 M | –
CC/C(=C(\c1ccccc1)c1ccc(OCCN(C)CC(=O)NCCOCCOCCOCCOCCNC(=O)COc2cccc3c2CN(C2CCC(=O)NC2=O)C3=O)cc1)c1ccccc1 (stereo not shown) [Compound 5.53] | – | – | – | – | IC50 (CRBN; [1]): 1390 nM; EC50 (ESR1): 7.35e-07 M
CC/C(=C(\c1ccccc1)c1ccc(OCCN(C)CC(=O)NCCOCCOCCNC(=O)COc2cccc3c2CN(C2CCC(=O)NC2=O)C3=O)cc1)c1ccccc1 (stereo not shown) [Compound 5.54] | – | – | – | – | IC50 (CRBN; [1]): 838 nM; EC50 (ESR1): 1.35e-07 M
CC/C(=C(\c1ccccc1)c1ccc(OCCN(C)CC(=O)NCCOCCOCCOCCNC(=O)COc2cccc3c2CN(C2CCC(=O)NC2=O)C3=O)cc1)c1ccccc1 (stereo not shown) [Compound 5.55] | – | – | – | – | IC50 (CRBN; [1]): 1050 nM; EC50 (ESR1): 4.42e-07 M
COc1cc(Cc2cnc(N)nc2N)cc(OC)c1OCCCCC(=O)NCCOCCOCCOCCn1cc(CCC(=O)Nc2cccc3c2CN(C2CCC(=O)NC2=O)C3=O)nn1 (stereo not shown) [TMP-LEN, Trimethoprim-lenalidomide] | – | – | – | 1.86e-08 M | hybrid ligand-induced binding between CRBN and DHFR (MAPPIT signal, FIG. 3) (DHFR; CRBN as gp130 fusion, DHFR linked to MAPPIT chimeric membrane receptor): dose-dependent signal can be observed
O=C(O)CN1CCN(Cc2ccc(COc3cccc4c3CN(C3CCC(=O)NC3=O)C4=O)cc2)CC1 (stereo not shown) [ZE26-0001, formic acid] | 801 nM | 4680 nM | 5760 nM | – | EC50_ASS1 (M) (ASS1): >>

Further lines, with some results ahead:

EC50 (SALL4) | EC50 (IKZF1) | IC50 (CRBN; [2]) | Compound | EC50 (DHFR) | also measured
1780 nM | 2730 nM | 247000 nM | O=C1CCC(N2Cc3c(NC(=O)Nc4cccc5c4CN(C4CCC(=O)NC4=O)C5=O)cccc3C2=O)C(=O)N1 (stereo not shown) [Compound C30231, 1,3-bis[2-(2,6-dioxo-3-piperidyl)-1-oxo-isoindolin-4-yl]urea] | – | EC50_ASS1 (M) (ASS1): >>
1080 nM | 1330 nM | 851 nM | O=C1CCC(N2Cc3cc(NCC(=O)Nc4ccccc4)ccc3C2=O)C(=O)N1 (stereo not shown) [Compound C35797, 2-[[2-(2,6-dioxo-3-piperidyl)-1-oxo-isoindolin-5-yl]amino]-N-phenyl-acetamide] | – | EC50_ASS1 (M) (ASS1): >>
188 nM | 1150 nM | 484 nM | O=C(CNc1ccc2c(c1)CN(C1CCC(=O)NC1=O)C2=O)NCc1ccccc1 (stereo not shown) [Compound C35856, N-benzyl-2-[[2-(2,6-dioxo-3-piperidyl)-1-oxo-isoindolin-5-yl]amino]acetamide] | – | EC50_ASS1 (M) (ASS1): >>
430 nM | 1620 nM | 1340 nM | N#Cc1ccc2c(c1)C(=O)N(C1CCC(=O)NC1=O)C2 (stereo not shown) [Compound C48007, 2-(2,6-dioxo-3-piperidyl)-3-oxo-isoindoline-5-carbonitrile] | – | EC50_ASS1 (M) (ASS1): >>
62.1 nM | 1240 nM | 24.3 nM | O=C1CCC(N2Cc3c(cccc3-c3ccccc3)C2=O)C(=O)N1 (stereo not shown) [Compound C48014, 3-(1-oxo-4-phenyl-isoindolin-2-yl)piperidine-2,6-dione] | – | EC50 (ASS1): 921 nM
59.3 nM | 1520 nM | 190 nM | CC1c2ccccc2C(=O)N1C1CCC(=O)NC1=O (stereo not shown) [Compound C51383, 3-(1-methyl-3-oxo-isoindolin-2-yl)piperidine-2,6-dione] | – | EC50 (ASS1): 1700 nM
33 nM | 122 nM | 704 nM | Nc1cccc2nnn(C3CCC(=O)NC3=O)c(=O)c12 (stereo not shown) [Compound C59904, 3-(5-amino-4-oxo-1,2,3-benzotriazin-3-yl)piperidine-2,6-dione] | – | EC50 (ASS1): 698 nM
29.3 nM | 569 nM | 106 nM | O=C1CCC(N2Cc3c(ccc4c3OCO4)C2=O)C(=O)N1 (stereo not shown) [Compound C67858, 3-(6-oxo-8H-[1,3]dioxolo[4,5-e]isoindol-7-yl)piperidine-2,6-dione] | – | EC50 (ASS1): 884 nM
– | – | 7990 nM | O=C1CCC(N2Cc3ccc(NC(=O)c4cnc5[nH]cnc5c4)cc3C2=O)C(=O)N1 (stereo not shown) [Compound C80394, N-[2-(2,6-dioxo-3-piperidyl)-3-oxo-isoindolin-5-yl]-3H-imidazo[4,5-b]pyridine-6-carboxamide] | – | Recruitment Assessment (IKZF1, ASS1 and SALL4): TRUE
< 13.7 nM | 1290 nM | 145 nM | CN(C)c1ccc2c(c1)CN(C1CCC(=O)NC1=O)C2=O (stereo not shown) [Compound C98103, 3-[5-(dimethylamino)-1-oxo-isoindolin-2-yl]piperidine-2,6-dione] | – | EC50_ASS1 (M) (ASS1): >>
